Structures can show the parent of a compound that is named as a salt.
These compounds were tested against T1, human cloned 5-HT6 receptors (Homo sapiens, UniProt P50406) (assay: 5-HT6 binding affinity, [3H]-LSD displacement on membranes of Hela cells expressing human cloned 5-HT6 receptors). Settings: [3H]-LSD 3.0 nM, Hela cell membranes, 120 min at room temperature.
T1 construct: expressed in transfected cells; host or cells: HeLa cells (membrane preparation)
T1 sequence (P50406 whole entry): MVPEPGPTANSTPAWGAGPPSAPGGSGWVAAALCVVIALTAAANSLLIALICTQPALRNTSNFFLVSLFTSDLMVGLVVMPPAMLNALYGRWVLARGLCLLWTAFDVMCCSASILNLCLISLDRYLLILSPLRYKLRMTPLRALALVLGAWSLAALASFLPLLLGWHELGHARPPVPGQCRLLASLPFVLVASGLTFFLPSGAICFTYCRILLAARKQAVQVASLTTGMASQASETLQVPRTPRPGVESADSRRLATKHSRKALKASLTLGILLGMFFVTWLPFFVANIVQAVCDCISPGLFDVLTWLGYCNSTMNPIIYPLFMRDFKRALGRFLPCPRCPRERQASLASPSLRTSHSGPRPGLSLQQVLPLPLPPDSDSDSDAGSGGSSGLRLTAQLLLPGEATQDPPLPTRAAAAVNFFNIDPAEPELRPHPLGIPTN
Protocol: The affinity of test compounds for the serotonin 5-HT6 receptor is evaluated in the following manner. Cultured Hela cells expressing human cloned 5-HT6 receptors are harvested and centrifuged at low speed (1,000×g) for 10.0 min to remove the culture media. The harvested cells are suspended in half volume of fresh physiological phosphate buffered saline solution and recentrifuged at the same speed. This operation is repeated. The collected cells are then homogenized in ten volumes of 50 mM Tris.HCl (pH 7.4) and 0.5 mM EDTA. The homogenate is centrifuged at 40,000×g for 30.0 min and the precipitate is collected. The obtained pellet is resuspended in 10 volumes of Tris.HCl buffer and recentrifuged at the same speed. The final pellet is suspended in a small volume of Tris.HCl buffer and the tissue protein content is determined in aliquots of 10-25 μl volumes. Bovine Serum Albumin is used as the standard in the protein determination according to the method described in Lowry et al., J. Biol. Chem., 193:265 (1951). The volume of the suspended cell membranes is adjusted to give a tissue protein concentration of 1.0 mg/ml of suspension. The prepared membrane suspension (10 times concentrated) is aliquoted in 1.0 ml volumes and stored at −70° C. until used in subsequent binding experiments.
Binding experiments are performed in a 96 well microtiter plate format, in a total volume of 200 μl. […] The test compounds are added in 20.0 μl volume.
The reaction is allowed to proceed in the dark for 120 min at room temperature, at which time, the bound ligand-receptor complex is filtered off on a 96 well unifilter with a Packard Filtermate® 196 Harvester. The bound complex caught on the filter disk is allowed to air dry and the radioactivity is measured in a Packard TopCount® equipped with six photomultiplier detectors, after the addition of 40.0 μl Microscint®-20 scintillant to each shallow well. The unifilter plate is heat-sealed and counted in a PackardTopCount® with a tritium efficiency of 31.0%.
Binding in the presence of varying concentrations of test compound is expressed as a percentage of specific binding in the absence of test compound. The results are plotted as log % bound versus log concentration of test compound. […] A linear regression line of data points is plotted, from which the IC50 value is determined and the Ki value is determined based upon the following equation: […]
where L is the concentration of the radioactive ligand used and KD is the dissociation constant of the ligand for the receptor, both expressed in nM.
In the case of `CC1CCCC(C)N1CC1CCc2ccc(NS(=O)(=O)c3ccccc3)cc2O1` (stereo not shown) [Example 24, N-{2-[(2,6-dimethylpiperidin-1-yl)methyl]-3,4-dihydro-2H-chromen-7-yl}benzenesulfonamide], the Ki is reported as 72 nM. `CC(C)NCC1CCc2ccc(NS(=O)(=O)c3ccccc3)cc2O1` (stereo not shown) [Example 19, N-{2-[(isopropylamino)methyl]-3,4-dihydro-2H-chromen-7-yl}benzenesulfonamide] was tested, and the Ki was 16 nM. With `CC(CCc1ccccc1)NCC1CCc2ccc(NS(=O)(=O)c3ccccc3)cc2O1` (stereo not shown) [Example 20, N-(2-{[(1-methyl-3-phenylpropyl)amino]methyl}-3,4-dihydro-2H-chromen-7-yl)benzenesulfonamide] the Ki was 6 nM. For `COc1ccc(S(=O)(=O)Nc2ccc3c(c2)OC(CNCCCO)CC3)cc1` (stereo not shown) [Example 29, N-(2-{[(3-hydroxypropyl)amino]methyl}-3,4-dihydro-2H-chromen-7-yl)-4-methoxybenzenesulfonamide], the Ki was 39 nM. `O=S(=O)(Nc1ccc2c(c1)OC(CNCc1ccccc1)CC2)c1ccccc1` (stereo not shown) [Example 8, N-{2-[(benzylamino)methyl]-3,4-dihydro-2H-chromen-7-yl}benzenesulfonamide] gave a Ki of 2 nM. Compound `C[C@@H](NCC1CCc2ccc(N(C)S(=O)(=O)c3ccc(F)cc3)cc2O1)c1ccccc1` (stereo partly drawn) [Example 52, 4-fluoro-N-methyl-N-[2-({[(1R)-1-phenylethyl]amino}methyl)-3,4-dihydro-2H-chromen-7-yl]benzenesulfonamide] has a Ki of 7 nM. Compound `O=S(=O)(Nc1ccc2c(c1)OC(CNCCCOc1ccccc1)CC2)c1ccccc1` (stereo not shown) [Example 9, N-(2-{[(3-phenoxypropyl)amino]methyl}-3,4-dihydro-2H-chromen-7-yl)benzenesulfonamide] has a Ki of 2 nM. Work on `O=S(=O)(Nc1ccc2c(c1)OC(CN1CCCCC1CCO)CC2)c1ccccc1` (stereo not shown) [Example 23, N-(2-{[2-(2-hydroxyethyl)piperidin-1-yl]methyl}-3,4-dihydro-2H-chromen-7-yl)benzenesulfonamide] yielded a Ki of 35 nM. `C[C@@H](NCC1CCc2ccc(NS(=O)(=O)c3c(Cl)nc4sccn34)cc2O1)c1ccccc1` (stereo partly drawn) [Example 33, 6-chloro-N-[2-({[(1R)-1-phenylethyl]amino}methyl)-3,4-dihydro-2H-chromen-7-yl]imidazo[2,1-b][1,3]thiazole-5-sulfonamide] gave a Ki of 3 nM. In the case of `C[C@@H](NCC1CCc2ccc(N(C)S(=O)(=O)c3ccc(N)cc3)cc2O1)c1ccccc1` (stereo partly drawn) [Example 56, 4-amino-N-methyl-N-[2-({[(1R)-1-phenylethyl]amino}methyl)-3,4-dihydro-2H-chromen-7-yl]benzenesulfonamide], the Ki is reported as 4 nM. With `O=S(=O)(Nc1ccc2c(c1)OC(CNCc1ccc3c(c1)OCO3)CC2)c1ccccc1` (stereo not shown) [Example 11, N-(2-{[(1,3-benzodioxol-5-ylmethyl)amino]methyl}-3,4-dihydro-2H-chromen-7-yl)benzenesulfonamide] the Ki was 2 nM. `C[C@@H](NCC1CCc2ccc(NS(=O)(=O)c3ccc(C(F)(F)F)cc3)cc2O1)c1ccccc1` (stereo partly drawn) [Example 43, N-[2-({[(1R)-1-phenylethyl]amino}methyl)-3,4-dihydro-2H-chromen-7-yl]-4-(trifluoromethyl)benzenesulfonamide] was tested, and the Ki was 6 nM. Compound `C[C@@H](NCC1CCc2ccc(NS(=O)(=O)c3ccccc3)cc2O1)c1ccccc1` (stereo partly drawn) [Example 10, N-[2-({[(1R)-1-phenylethyl]amino}methyl)-3,4-dihydro-2H-chromen-7-yl]benzenesulfonamide] has a Ki of 1 nM. `C[C@H](NCC1CCc2ccc(NS(=O)(=O)c3ccccc3)cc2O1)c1ccccc1` (stereo partly drawn) [Example 14, N-[2-({[(1S)-1-phenylethyl]amino}methyl)-3,4-dihydro-2H-chromen-7-yl]benzenesulfonamide] gave a Ki of 10 nM. `C[C@@H](NCC1CCc2ccc(NS(=O)(=O)c3ccc(OC(F)(F)F)cc3)cc2O1)c1ccccc1` (stereo partly drawn) [Example 40, N-[2-({[(1R)-1-phenylethyl]amino}methyl)-3,4-dihydro-2H-chromen-7-yl]-4-(trifluoromethoxy)benzenesulfonamide] showed a Ki of 11 nM. Compound `C[C@@H](NCC1CCc2ccc(NS(=O)(=O)c3cccc4ccccc34)cc2O1)c1ccccc1` (stereo partly drawn) [Example 41, N-[2-({[(1R)-1-phenylethyl]amino}methyl)-3,4-dihydro-2H-chromen-7-yl]naphthalene-1-sulfonamide] has a Ki of 4 nM. `COc1ccc(S(=O)(=O)Nc2ccc3c(c2)OC(CN[C@H](C)c2ccccc2)CC3)cc1` (stereo partly drawn) [Example 39, 4-methoxy-N-[2-({[(1R)-1-phenylethyl]amino}methyl)-3,4-dihydro-2H-chromen-7-yl]benzenesulfonamide] was tested, and the Ki was 10 nM. Compound `CC(C)(CO)NCC1CCc2ccc(NS(=O)(=O)c3ccccc3)cc2O1` (stereo not shown) [Example 18, N-(2-{[(2-hydroxy-1,1-dimethylethyl)amino]methyl}-3,4-dihydro-2H-chromen-7-yl)benzenesulfonamide] has a Ki of 41 nM. `O=S(=O)(Nc1ccc2c(c1)OC(CNCc1ccncc1)CC2)c1ccccc1` (stereo not shown) [Example 15, N-(2-{[(pyridin-4-ylmethyl)amino]methyl}-3,4-dihydro-2H-chromen-7-yl)benzenesulfonamide] was tested, and the Ki was 17 nM. Compound `O=S(=O)(Nc1ccc2c(c1)OC(CNCc1cccnc1)CC2)c1ccccc1` (stereo not shown) [Example 12, N-(2-{[(pyridin-3-ylmethyl)amino]methyl}-3,4-dihydro-2H-chromen-7-yl)benzenesulfonamide] has a Ki of 5 nM. `O=S(=O)(Nc1ccc2c(c1)OC(CNCCCO)CC2)c1ccc2ccccc2c1` (stereo not shown) [Example 28, N-(2-{[(3-Hydroxypropyl)amino]methyl}-3,4-dihydro-2H-chromen-7-yl)naphthalene-2-sulfonamide] was tested, and the Ki was 5 nM. `O=S(=O)(Nc1ccc2c(c1)OC(CNC(Cc1ccccc1)c1ccccc1)CC2)c1ccccc1` (stereo not shown) [Example 17, N-(2-{[(1,2-diphenylethyl)amino]methyl}-3,4-dihydro-2H-chromen-7-yl)benzenesulfonamide] gave a Ki of 84 nM. In the case of `COc1ccc(S(=O)(=O)N(C)c2ccc3c(c2)OC(CN[C@H](C)c2ccccc2)CC3)cc1OC` (stereo partly drawn) [Example 54, 3,4-dimethoxy-N-methyl-N-[2-({[(1R)-1-phenylethyl]amino}methyl)-3,4-dihydro-2H-chromen-7-yl]benzenesulfonamide], the Ki is reported as 11 nM. In the case of `O=S(=O)(Nc1ccc2c(c1)OC(CNCCCO)CC2)c1ccccc1` (stereo not shown) [Example 5, N-{2-[(3-Hydroxypropylamino)-methyl]chroman-7-yl}benzenesulfonamide Hemifumarate salt], the Ki is reported as 5 nM. For `C[C@@H](NC[C@@H]1CCc2ccc(NS(=O)(=O)c3cccc4ccccc34)cc2O1)c1ccccc1` [Example 46B, N-[(2S)-2({[(1R)-1-phenylethyl]amino}methyl)-3,4-dihydro-2H-chromen-7-yl]naphthalene-1-sulfonamide Hydrochloride], the Ki was 2 nM. With `C[C@@H](NCC1CCc2ccc(NS(=O)(=O)c3cccc4nonc34)cc2O1)c1ccccc1` (stereo partly drawn) [Example 32, N-[2-({[(1R)-1-Phenylethyl]amino}methyl)-3,4-dihydro-2H-chromen-7-yl]-2,1,3-benzoxadiazole-4-sulfonamide] the Ki was 5 nM. For `C[C@@H](NCC1CCc2ccc(NS(=O)(=O)c3ccc(Br)s3)cc2O1)c1ccccc1` (stereo partly drawn) [Example 34, 5-bromo-N-[2-({[(1R)-1-phenylethyl]amino}methyl)-3,4-dihydro-2H-chromen-7-yl]-2-thiophenesulfonamide], the Ki was 5 nM. `CC(=O)Nc1nc(C)c(S(=O)(=O)Nc2ccc3c(c2)OC(CN[C@H](C)c2ccccc2)CC3)s1` (stereo partly drawn) [Example 35, N-[4-methyl-5-({[2-({[(1R)-1-phenylethyl]amino}methyl)-3,4-dihydro-2H-chromen-7-yl]amino}sulfonyl)-1,3-thiazol-2-yl]acetamide] was tested, and the Ki was 7 nM. `C[C@@H](NCC1CCc2ccc(N(C)S(=O)(=O)c3cccc4ccccc34)cc2O1)c1ccccc1` (stereo partly drawn) [Example 55, N-methyl-N-[2-({[(1R)-1-phenylethyl]amino}methyl)-3,4-dihydro-2H-chromen-7-yl]naphthalene-1-sulfonamide] showed a Ki of 4 nM. `O=S(=O)(Nc1ccc2c(c1)OC(CNCCCO)CC2)c1ccc(Cl)cc1` (stereo not shown) [Example 31, 4-chloro-N-(2-{[(3-hydroxypropyl)amino]methyl}-3,4-dihydro-2H-chromen-7-yl)benzenesulfonamide] gave a Ki of 11 nM. Work on `C[C@@H](NCC1CCc2ccc(NS(=O)(=O)c3ccccc3)cc2O1)C1CCCCC1` (stereo partly drawn) [Example 27, N-[2-({[(1R)-1-cyclohexylethyl]amino}methyl)-3,4-dihydro-2H-chromen-7-yl]benzenesulfonamide] yielded a Ki of 7 nM.

From US6706757B2, “Chroman derivatives as 5-hydroxytryptamine-6 ligands” (Wyeth, priority 2001, dated 2004)
